Test results as given in patent publication US20210154188A1, “ALK5 INHIBITORS, CONJUGATES, AND USES THEREOF” (SILVERBACK THERAPEUTICS, INC., priority 2018, published 2021).

How the values were obtained:
[1] = test system: TGFb/SMAD Signaling Pathway SBE reporter cell line; experiment: TGFb reporter assay (luciferase); type: cell-based; conditions: 5-6 h preincubation, then TGFb, 18 h, luminescence
Method: TGFb/SMAD Signaling Pathway SBE reporter cell line was obtained from BPS Bioscience. Cells were passed/expanded/stored in liquid nitrogen per supplier's instruction with the exception that growth media was changed to DMEM-C with Geneticin (DMEM supplemented with 10% fetal bovine serum, 1× NEAA, 1 mM Pyruvate, 2 mM glutamine, 50 μg/mL penicillin, 50 U/mL streptomycin and 400 ug/mL of Geneticin). The assay media was MEM supplemented with 0.5% fetal bovine serum, 1× NEAA, 1 mM Pyruvate, 50 μg/mL penicillin and 50 U/mL streptomycin.
Reporter cells were harvested from the tissue culture flasks by incubation in small quantity of Versene at room temperature for three to five minutes after the media in the flask was removed and cells rinsed with PBS. Cells were counted and diluted in the assay media at ˜0.8×10^6 cells/mL then 50 uL/well were added to 96-well assay plate. Test samples (at desired concentrations diluted in assay media) were added to assay plate containing the 50 uL/well of cells (or media only), 50 uL per well, and incubated for 5-6 hours at 37° C. in a 5% CO2 humidified incubator. After that time, 15 uL of TGFb diluted to 12.5 ng/mL in the assay media was added to the plate. Controls included TGFb titration (from 25 to 0 ng/mL) without inhibitors, and media only (without cells, inhibitor or TGFb). Plates were incubated at 37° C. in a 5% CO2 humidified incubator for 18 h. Luciferase substrate solution was subsequently added at 75 uL per well, incubated in dark with shaking at room temperature for 10 min, and luminescence was measured using a luminometer.

ALK5 = target: T1, ALK5 (Homo sapiens, UniProt P36897); experiment: ALK5 enzyme inhibition assay (33P-ATP filter-binding, Reaction Biology Corp); type: biochemical; conditions: casein substrate 1 mg/mL, 10 uM ATP
T1 construct: purchased Reaction Biology Corp (Malvern, PA)
T1 sequence (P36897 34-503): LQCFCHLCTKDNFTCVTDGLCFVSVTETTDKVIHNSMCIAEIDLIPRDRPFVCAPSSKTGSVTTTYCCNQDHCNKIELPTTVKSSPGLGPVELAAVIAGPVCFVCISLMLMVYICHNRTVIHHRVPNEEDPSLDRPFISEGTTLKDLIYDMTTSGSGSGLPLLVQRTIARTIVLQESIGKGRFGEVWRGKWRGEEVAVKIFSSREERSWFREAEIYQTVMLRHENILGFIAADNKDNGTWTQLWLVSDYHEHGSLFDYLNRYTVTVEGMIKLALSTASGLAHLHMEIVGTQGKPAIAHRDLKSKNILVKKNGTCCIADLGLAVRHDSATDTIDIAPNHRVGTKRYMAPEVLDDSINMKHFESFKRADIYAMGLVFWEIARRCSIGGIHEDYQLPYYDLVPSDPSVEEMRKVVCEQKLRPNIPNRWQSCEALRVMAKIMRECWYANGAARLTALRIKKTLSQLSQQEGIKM
Method: ALK5 enzyme inhibition assays were performed by Reaction Biology Corp (Malvern, PA). 1 mg/mL of peptide subtrate (casein) and 10 uM ATP were prepared in a mixture of fresh reaction buffer. The kinase was delivered into the substrate solution which was gently mixed. Compounds in 100% DMSO were added to the kinase reaction mixture by Acoustic technology (Echo550; nanoliter range) and the mixture was incubated for 20 min at room temperature. ^33P-ATP (Specific activity 10 uCi/uL) was added into the reaction mixture to initiate the reaction and the reaction mixture was incubated for 2 hours at room temperature. Radioactivity was detected by filter-binding method and kinase activity data were expressed as the percent remaining kinase activity in test samples compared to vehicle (dimethyl sulfoxide) reactions. IC50 values and curve fits were obtained using Prism (GraphPad Software).

With CC(=O)NC1Cc2ccc(NCc3nc(-c4cccc(C)n4)c(-c4ccc5ncnn5c4)[nH]3)cc2C1 (stereo not shown) [Compound 1.25, N-(5-(((5-([1,2,4]triazolo[1,5-a]pyridin-6-yl)-4-(6-methylpyridin-2-yl)-1H-imidazol-2-yl)methyl)amino)-2,3-dihydro-1H-inden-2-yl)acetamide] the IC50 [1] was 100 to 1000 nM and the IC50 (ALK5) was 100 to 1000 nM.
Cc1cccc(-c2nc(CNc3ccc4c(c3)C(N)CC4)[nH]c2-c2ccc3ncnn3c2)n1 (stereo not shown) [Compound 1.21, N6-((5-([1,2,4]triazolo[1,5-a]pyridin-6-yl)-4-(6-methylpyridin-2-yl)-1H-imidazol-2-yl)methyl)-2,3-dihydro-1H-indene-1,6-diamine] showed an IC50 [1] of 100 to 1000 nM.
Cc1cccc(-c2nc(CN[C@@H]3c4ccccc4C[C@@H]3O)[nH]c2-c2ccc3ncnn3c2)n1 [Compound 1.44, (1R,2S)-1-(((5-([1,2,4]triazolo[1,5-a]pyridin-6-yl)-4-(6-methylpyridin-2-yl)-1H-imidazol-2-yl)methyl)amino)-2,3-dihydro-1H-inden-2-ol] showed an IC50 [1] of 10 to 100 nM and an IC50 (ALK5) of 100 to 1000 nM.
Molecule Cc1cccc(-c2nc(CNCCc3cccc4ccccc34)[nH]c2-c2ccc3ncnn3c2)n1 [Compound 1.59, N-((5-([1,2,4]triazolo[1,5-a]pyridin-6-yl)-4-(6-methylpyridin-2-yl)-1H-imidazol-2-yl)methyl)-2-(naphthalen-1-yl)ethan-1-amine] has an IC50 [1] of 10 to 100 nM and an IC50 (ALK5) of 10 to 100 nM.
With Cc1cccc(-c2nc(CN[C@H]3CCCC[C@@H]3F)[nH]c2-c2ccc3ncnn3c2)n1 [Compound 1.32, (1S,2S)-N-((5-([1,2,4]triazolo[1,5-a]pyridin-6-yl)-4-(6-methylpyridin-2-yl)-1H-imidazol-2-yl)methyl)-2-fluorocyclohexan-1-amine] the IC50 [1] was 100 to 1000 nM and the IC50 (ALK5) was 10 to 100 nM.
Cc1cccc(-c2nc(C3CCCNC3)[nH]c2-c2ccc3ncnn3c2)n1 (stereo not shown) [Compound 1.48, 6-(4-(6-methylpyridin-2-yl)-2-(piperidin-3-yl)-1H-imidazol-5-yl)-[1,2,4]triazolo[1,5-a]pyridine] gave an IC50 [1] of 100 to 1000 nM.
Cc1cccc(-c2nc(C3CCN(C(=O)OC(C)(C)C)C3)[nH]c2-c2ccc3ncnn3c2)n1 (stereo not shown) [Compound 1.51, tert-butyl 3-(5-([1,2,4]triazolo[1,5-a]pyridin-6-yl)-4-(6-methylpyridin-2-yl)-1H-imidazol-2-yl)pyrrolidine-1-carboxylate] gave an IC50 [1] of 100 to 1000 nM.
Work on Cc1cccc(-c2nc(CNCCc3cccc4ncccc34)[nH]c2-c2ccc3ncnn3c2)n1 [Compound 1.61, N-((5-([1,2,4]triazolo[1,5-a]pyridin-6-yl)-4-(6-methylpyridin-2-yl)-1H-imidazol-2-yl)methyl)-2-(quinolin-5-yl)ethan-1-amine] yielded an IC50 [1] of 10 to 100 nM and an IC50 (ALK5) of 100 to 1000 nM.
Cc1cccc(-c2nc(CNC3CCOCC3)[nH]c2-c2ccc3ncnn3c2)n1 [Compound 1.14, 1-(5-([1,2,4]triazolo[1,5-a]pyridin-6-yl)-4-(6-methylpyridin-2-yl)-1H-imidazol-2-yl)-N-(4-tetrahydropyranyl)methanamine] gave an IC50 [1] of 10 to 100 nM and an IC50 (ALK5) of 100 to 1000 nM.
CC(=O)NC1Cc2cccc(NCc3nc(-c4cccc(C)n4)c(-c4ccc5ncnn5c4)[nH]3)c2C1 (stereo not shown) [Compound 1.23, N-(4-(((5-([1,2,4]triazolo[1,5-a]pyridin-6-yl)-4-(6-methylpyridin-2-yl)-1H-imidazol-2-yl)methyl)amino)-2,3-dihydro-1H-inden-2-yl)acetamide] showed an IC50 [1] of 100 to 1000 nM.
Molecule Cc1cccc(-c2nc(CNCC3CC3)[nH]c2-c2ccc3ncnn3c2)n1 [Compound 1.8, 1-(5-([1,2,4]triazolo[1,5-a]pyridin-6-yl)-4-(6-methylpyridin-2-yl)-1H-imidazol-2-yl)-N-(cyclopropyl-methyl)methanamine] has an IC50 [1] of 100 to 1000 nM and an IC50 (ALK5) of 1000 to 10000 nM.
For Cc1cccc(-c2nc(C3CCNC3)[nH]c2-c2ccc3ncnn3c2)n1 (stereo not shown) [Compound 1.50, 6-(4-(6-methylpyridin-2-yl)-2-(pyrrolidin-3-yl)-1H-imidazol-5-yl)-[1,2,4]triazolo[1,5-a]pyridine], the IC50 [1] was 100 to 1000 nM.
In the case of Cc1cccc(-c2nc(CNc3cccc4c3CCC4N)[nH]c2-c2ccc3ncnn3c2)n1 (stereo not shown) [Compound 1.6, N^4-((5-([1,2,4]triazolo[1,5-a]pyridin-6-yl)-4-(6-methylpyridin-2-yl)-1H-imidazol-2-yl)methyl)-2,3-dihydro-1H-indene-1,4-diamine], the IC50 [1] is reported as 100 to 1000 nM.
Work on Cc1cccc(-c2nc(C3CN(C(=O)OC(C)(C)C)C3)[nH]c2-c2ccc3ncnn3c2)n1 [Compound 1.52, tert-butyl 3-(5-([1,2,4]triazolo[1,5-a]pyridin-6-yl)-4-(6-methylpyridin-2-yl)-1H-imidazol-2-yl)azetidine-1-carboxylate] yielded an IC50 [1] of 100 to 1000 nM.
In the case of Cc1cccc(-c2nc(CNc3cccc4c3C(N)CC4)[nH]c2-c2ccc3ncnn3c2)n1 (stereo not shown) [Compound 1.20, N7-((5-([1,2,4]triazolo[1,5-a]pyridin-6-yl)-4-(6-methylpyridin-2-yl)-1H-imidazol-2-yl)methyl)-2,3-dihydro-1H-indene-1,7-diamine], the IC50 [1] is reported as 100 to 1000 nM.
Work on Cc1cccc(-c2nc(C34CCC(N)(CC3)CC4)[nH]c2-c2ccc3ncnn3c2)n1 [Compound 1.55, 4-(5-([1,2,4]triazolo[1,5-a]pyridin-6-yl)-4-(6-methylpyridin-2-yl)-1H-imidazol-2-yl)bicyclo[2.2.2]octan-1-amine] yielded an IC50 [1] of 1000 to 10000 nM.
In the case of Cc1cccc(-c2nc(CNC3CCCCC3C)[nH]c2-c2ccc3ncnn3c2)n1 (stereo not shown) [Compound 1.16, 1-(5-([1,2,4]triazolo[1,5-a]pyridin-6-yl)-4-(6-methylpyridin-2-yl)-1H-imidazol-2-yl)-N-(2-methylcyclohexyl)methanamine], the IC50 [1] is reported as 10 to 100 nM.
Work on Cc1cccc(-c2nc(CNc3ccc4c(c3)CCC4N)[nH]c2-c2ccc3ncnn3c2)n1 (stereo not shown) [Compound 1.5, N^5-((5-([1,2,4]triazolo[1,5-a]pyridin-6-yl)-4-(6-methylpyridin-2-yl)-1H-imidazol-2-yl)methyl)-2,3-dihydro-1H-indene-1,5-diamine] yielded an IC50 [1] of 100 to 1000 nM.
Molecule Cc1cccc(-c2nc(C3CCCCN3)[nH]c2-c2ccc3ncnn3c2)n1 (stereo not shown) [Compound 1.49, 6-(4-(6-methylpyridin-2-yl)-2-(piperidin-2-yl)-1H-imidazol-5-yl)-[1,2,4]triazolo[1,5-a]pyridine] has an IC50 [1] of 100 to 1000 nM.
Cc1cccc(-c2nc(CNC34CC(C3)C4)[nH]c2-c2ccc3ncnn3c2)n1 [Compound 1.9, N-((5-([1,2,4]triazolo[1,5-a]pyridin-6-yl)-4-(6-methylpyridin-2-yl)-1H-imidazol-2-yl)methyl)bicyclo-[1.1.1]pentan-1-amine] showed an IC50 [1] of 10 to 100 nM.
Cc1cccc(-c2nc(CNC3CCCOC3)[nH]c2-c2ccc3ncnn3c2)n1 (stereo not shown) [Compound 1.15, 1-(5-([1,2,4]triazolo[1,5-a]pyridin-6-yl)-4-(6-methylpyridin-2-yl)-1H-imidazol-2-yl)-N-(3-tetrahydropyranyl)methanamine] showed an IC50 [1] of 10 to 100 nM.
Molecule Cc1cccc(-c2nc(C3CNC3)[nH]c2-c2ccc3ncnn3c2)n1 [Compound 1.53, 6-(2-(azetidin-3-yl)-4-(6-methylpyridin-2-yl)-1H-imidazol-5-yl)-[1,2,4]triazolo[1,5-a]pyridine] has an IC50 [1] of 1000 to 10000 nM.
Work on Cc1cccc(-c2nc(CNC3CCCNC3)[nH]c2-c2ccn3ncnc3c2)n1 (stereo not shown) [Compound 1.38, N-((5-([1,2,4]triazolo[1,5-a]pyridin-7-yl)-4-(6-methylpyridin-2-yl)-1H-imidazol-2-yl)methyl)piperidin-3-amine] yielded an IC50 [1] of 1000 to 10000 nM.
For Cc1cccc(-c2nc(CNC3CCNCC3)[nH]c2-c2ccn3ncnc3c2)n1 [Compound 1.39, N-((5-([1,2,4]triazolo[1,5-a]pyridin-7-yl)-4-(6-methylpyridin-2-yl)-1H-imidazol-2-yl)methyl)piperidin-4-amine], the IC50 [1] was 1000 to 10000 nM.
